Laboratory results published in patent US12233057B2, “Small molecules for inhibiting chemokine activity and/or cancer cells growth” (AlonBio Ltd., priority 2015, dated 2025).
In brackets after ≈: the same amount, converted by molar mass.

Key:
MCP-1 = MCP-1 (Homo sapiens, UniProt P13500); assay: Migration assay: THP-1 cells towards MCP-1 (Transwell); assay type: cell-based; details: BKT300 at 78% purity
Description: (§1) 600 μl of RPMI medium was added to the lower chambers of Transwell® transmigration plates, supplemented with 2 μg/ml of MIP3a, 100 ng/ml of SDF-1 or 10 ng/ml of MCP-1. The tested small molecule was added to the lower chambers at the indicated concentration, except in control samples. The MIP3a, SDF-1 or MCP-1 was incubated with the small molecule for 30 minutes at room temperature before the initiation of the migration assay. Following 30 minutes of incubation 2×10^5 immune cells were added to the upper chambers of the transmigration plates in a total volume of 100 μl. Cells which migrated within 3 hours to the bottom chamber of the Transwell® plates were counted using a FACScalibur™ flow cytometer.
To evaluate migration towards MCP-1, JTHP-1 cells were re-suspended in RPMI medium containing 1% fetal calf serum (FCS).

[1] = system: H345 human small cell lung cancer cells; assay: Cancer cell viability assay, propidium iodide staining (FACS); assay type: cell-based; details: BKT300 at 78% purity, 8.5 μg/ml
Description: (§2) The cancer cells were incubated in cell medium with 1% fetal calf serum (FCS) at a concentration of 2×10^5 cells/well at a final volume of 250 μl in 96-well plate. The tested small molecule was added to the cells at the indicated concentrations. The cells were incubated for 24 hours and the number of dead and viable cells was then evaluated by fluorescence-activated cell sorting (FACS), using propidium iodide (PI) staining. The IC50 of the small molecule-induced cell death was determined using GraphPad Prism software.
(§3) The in vitro effect of BKT300 (at 78% purity) on cancer cell viability was further evaluated using a variety of additional cancer cell lines, using procedures as described hereinabove with respect to MV4-11 cells.

[2] = system: Bjab human lymphoma cells; assay: as above; assay type: cell-based; details: BKT300 at 78% purity, 8.5 μg/ml
Description: as §2, §3

[3] = system: H460 human large cell lung cancer cells; assay: as above; assay type: cell-based; details: BKT300 at 78% purity, 10 μg/ml
Description: as §2, §3

[4] = system: RPMI human multiple myeloma cells; assay: as above; assay type: cell-based; details: BKT300 at 78% purity, 24 hours
Description: as §2, §3

[5] = system: Raji human lymphoma cells; assay: as above; assay type: cell-based; details: BKT300 at 78% purity
Description: as §2, §3

[6] = system: Jurkat human acute lymphoblastic leukemia cells; assay: as above; assay type: cell-based; details: BKT300 at 78% purity, 24 hours
Description: as §2, §3

MV4-11 (FLT3-ITD) cells = assay: In vivo AML model: NSG mice transplanted with MV4-11 cells; details: BKT300 at 98% purity, 1 mg/Kg intraperitoneally, three consecutive days from day 21; day 25; anti human CD45
Description: The effect of BKT300 (at 98% purity) on the proliferation of AML cells in vivo was examined by treatment of NOD Scid gamma (NSG) mice transplanted with MV4-11 (FLT3-ITD) cells.
The mice were subjected to irradiation with 300 rad and on the following day were transplanted by IV injection with MV4-11 (FLT3-ITD) cells, 10×10^6 cells/mouse. 21 days following transplantation, the treated group was injected intraperitoneally with 1 mg/Kg of BKT300 (98% purity) per injection for three consecutive days. On day 25 following transplantation, mice were sacrificed and the survival of the human AML blasts in the blood, spleen and the bone marrow was evaluated using anti human CD45.

[7] = system: MV4-11 human acute myeloid leukemia cells; assay: Cancer cell viability assay, propidium iodide staining (FACS); assay type: cell-based
Description: as §2
In order to assess the effect of BKT300 on cancer cells viability, the in vitro effect on MV4-11 human acute myeloid leukemia cells was evaluated. The MV4-11 cancer cells were incubated in RPMI cell medium with 1% fetal calf serum (FCS) at a concentration of 2×10^5 cells/well at a final volume of 250 μl in 96-well plate. BKT300 was added to the cells at the indicated concentrations. The cells were incubated for 24 hours and the number of dead and viable cells was then evaluated by fluorescence-activated cell sorting (FACS), using propidium iodide (PI) staining. The IC50 of […] cell death was determined using GraphPad Prism software.

BMPR1A (ALK3) = BMPR1A (ALK3) (Homo sapiens, UniProt P36894); assay: LanthaScreen europium kinase binding assay; details: BKT300 at 78% purity
Description: (§4) In order to further characterize the effect of BKT300 on cell signaling, kinase profiling of BKT300 (at 78% purity) was performed (by the Life Technologies SelectScreen® Biochemical Profiling Lab) using a LanthaScreen® europium kinase binding assay to screen 440 kinases.
(§5) The principle of the LanthaScreen® assay is depicted in FIG. 13. Binding of an Alexa Fluor® conjugate or “tracer” to a kinase is detected by addition of a europium (Eu)-labeled anti-tag antibody. Binding of the tracer and antibody to a kinase results in a high degree of FRET, whereas displacement of the tracer with a kinase inhibitor results in a loss of FRET. The kinase tracers are based on ATP-competitive kinase inhibitors, making them suitable for detection of any compounds that bind to the ATP site. Inhibitors that bind the ATP site include both Type I kinase inhibitors, which bind solely to the ATP site, and Type II inhibitors (e.g., imatinib, sorafenib, BIRB-796), which bind to both the ATP site and a second site often referred to as the allosteric site.

DAPK1 = DAPK1 (Homo sapiens, UniProt P53355); assay: LanthaScreen europium kinase binding assay; details: BKT300 at 78% purity
Description: as §4, §5

PIK3CD = PIK3CD (Homo sapiens, UniProt O00329); assay: LanthaScreen europium kinase binding assay; details: BKT300 at 78% purity
Description: as §4, §5

PAK7 (KIAA1264) = PAK7 (KIAA1264) (Homo sapiens, UniProt Q9P286); assay: LanthaScreen europium kinase binding assay; details: BKT300 at 78% purity
Description: as §4, §5

STK38L (NDR2) = STK38L (NDR2) (Homo sapiens, UniProt Q9Y2H1); assay: LanthaScreen europium kinase binding assay; details: BKT300 at 78% purity
Description: as §4, §5

PIK3CA = PIK3CA (Homo sapiens, UniProt P42336); assay: LanthaScreen europium kinase binding assay; details: BKT300 at 78% purity
Description: as §4, §5

CDK8/cyclin C = CDK8/cyclin C (Homo sapiens, UniProt P49336); assay: LanthaScreen europium kinase binding assay; details: BKT300 at 78% purity
Description: as §4, §5

ICK = ICK (Homo sapiens, UniProt Q9UPZ9); assay: LanthaScreen europium kinase binding assay; details: BKT300 at 78% purity
Description: as §4, §5

SRC N1 = SRC N1 (Homo sapiens, UniProt P12931); assay: LanthaScreen europium kinase binding assay; details: BKT300 at 78% purity
Description: as §4, §5

SDF-1 = assay: Migration assay: Jurkat cells towards SDF-1 (Transwell); assay type: cell-based, human; details: 10 μg/ml
Description: as §1
To evaluate migration towards SDF-1, Jurkat cells were re-suspended in RPMI medium containing 1% fetal calf serum (FCS).

Sequence of MCP-1 (P13500 24-99): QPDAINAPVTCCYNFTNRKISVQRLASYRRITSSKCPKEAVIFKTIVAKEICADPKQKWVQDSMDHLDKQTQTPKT
Sequence of DAPK1 (P53355 whole entry): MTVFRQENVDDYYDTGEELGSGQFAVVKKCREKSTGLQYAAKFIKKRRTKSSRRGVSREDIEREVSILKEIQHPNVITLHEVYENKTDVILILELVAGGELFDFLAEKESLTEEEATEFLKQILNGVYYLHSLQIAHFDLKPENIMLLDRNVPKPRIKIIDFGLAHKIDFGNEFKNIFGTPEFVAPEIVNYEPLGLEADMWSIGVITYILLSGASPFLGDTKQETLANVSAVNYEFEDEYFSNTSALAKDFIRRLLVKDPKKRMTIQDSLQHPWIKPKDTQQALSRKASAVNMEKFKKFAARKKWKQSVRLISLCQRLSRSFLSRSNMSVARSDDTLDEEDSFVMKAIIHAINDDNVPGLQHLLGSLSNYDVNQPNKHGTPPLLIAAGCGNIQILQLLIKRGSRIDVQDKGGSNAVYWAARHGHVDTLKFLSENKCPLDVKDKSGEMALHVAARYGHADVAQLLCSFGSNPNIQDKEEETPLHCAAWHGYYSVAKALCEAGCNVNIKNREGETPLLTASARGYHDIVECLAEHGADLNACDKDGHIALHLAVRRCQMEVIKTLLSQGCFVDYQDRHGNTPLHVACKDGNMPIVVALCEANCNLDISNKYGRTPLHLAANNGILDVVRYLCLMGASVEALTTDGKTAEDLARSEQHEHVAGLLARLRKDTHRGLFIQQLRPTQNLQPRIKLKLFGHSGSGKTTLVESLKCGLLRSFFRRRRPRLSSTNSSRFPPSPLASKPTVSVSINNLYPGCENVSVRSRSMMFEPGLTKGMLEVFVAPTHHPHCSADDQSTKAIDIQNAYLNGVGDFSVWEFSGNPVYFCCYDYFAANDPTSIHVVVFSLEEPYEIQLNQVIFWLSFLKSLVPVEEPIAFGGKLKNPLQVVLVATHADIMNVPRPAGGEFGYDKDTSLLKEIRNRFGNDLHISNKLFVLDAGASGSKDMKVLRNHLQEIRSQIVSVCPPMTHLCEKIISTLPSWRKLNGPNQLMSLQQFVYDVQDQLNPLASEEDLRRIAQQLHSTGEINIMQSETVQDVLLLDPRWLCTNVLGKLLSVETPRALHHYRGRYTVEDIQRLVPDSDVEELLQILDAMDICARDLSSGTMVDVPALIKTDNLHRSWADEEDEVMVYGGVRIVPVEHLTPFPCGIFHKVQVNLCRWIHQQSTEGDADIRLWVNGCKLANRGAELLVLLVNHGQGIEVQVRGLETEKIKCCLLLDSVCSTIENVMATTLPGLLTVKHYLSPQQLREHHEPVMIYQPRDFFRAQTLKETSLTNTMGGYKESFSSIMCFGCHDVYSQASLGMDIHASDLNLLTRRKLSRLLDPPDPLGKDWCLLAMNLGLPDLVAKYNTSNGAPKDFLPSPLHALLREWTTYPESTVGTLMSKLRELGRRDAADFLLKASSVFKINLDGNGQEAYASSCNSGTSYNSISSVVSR
Sequence of PIK3CD (O00329 whole entry): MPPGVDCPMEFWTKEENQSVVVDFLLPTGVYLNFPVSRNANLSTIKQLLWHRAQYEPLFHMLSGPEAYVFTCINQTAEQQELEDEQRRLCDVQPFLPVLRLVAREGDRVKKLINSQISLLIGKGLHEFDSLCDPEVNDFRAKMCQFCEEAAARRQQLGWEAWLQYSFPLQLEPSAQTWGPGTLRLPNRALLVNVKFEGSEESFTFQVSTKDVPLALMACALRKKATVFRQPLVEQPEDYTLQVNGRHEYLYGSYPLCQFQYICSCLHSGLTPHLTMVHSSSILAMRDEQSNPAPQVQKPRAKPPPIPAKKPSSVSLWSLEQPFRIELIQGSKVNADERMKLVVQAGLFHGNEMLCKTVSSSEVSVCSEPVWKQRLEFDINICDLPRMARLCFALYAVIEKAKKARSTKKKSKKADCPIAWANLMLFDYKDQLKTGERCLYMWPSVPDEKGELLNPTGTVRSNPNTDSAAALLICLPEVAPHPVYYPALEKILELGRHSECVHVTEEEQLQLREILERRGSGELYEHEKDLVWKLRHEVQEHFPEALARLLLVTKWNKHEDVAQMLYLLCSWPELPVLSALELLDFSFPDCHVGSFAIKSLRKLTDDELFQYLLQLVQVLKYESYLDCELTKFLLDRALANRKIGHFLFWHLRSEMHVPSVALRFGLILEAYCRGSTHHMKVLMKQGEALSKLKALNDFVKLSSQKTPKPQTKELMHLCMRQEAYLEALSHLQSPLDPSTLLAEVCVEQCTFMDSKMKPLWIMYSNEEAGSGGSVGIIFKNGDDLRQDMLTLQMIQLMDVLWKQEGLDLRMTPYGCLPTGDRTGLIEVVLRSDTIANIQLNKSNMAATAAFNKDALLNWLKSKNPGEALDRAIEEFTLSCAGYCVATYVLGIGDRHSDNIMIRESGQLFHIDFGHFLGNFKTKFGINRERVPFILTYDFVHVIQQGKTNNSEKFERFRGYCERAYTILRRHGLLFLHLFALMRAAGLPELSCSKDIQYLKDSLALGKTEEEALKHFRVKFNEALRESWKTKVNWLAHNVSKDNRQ
Sequence of PIK3CD (P27986 whole entry partner): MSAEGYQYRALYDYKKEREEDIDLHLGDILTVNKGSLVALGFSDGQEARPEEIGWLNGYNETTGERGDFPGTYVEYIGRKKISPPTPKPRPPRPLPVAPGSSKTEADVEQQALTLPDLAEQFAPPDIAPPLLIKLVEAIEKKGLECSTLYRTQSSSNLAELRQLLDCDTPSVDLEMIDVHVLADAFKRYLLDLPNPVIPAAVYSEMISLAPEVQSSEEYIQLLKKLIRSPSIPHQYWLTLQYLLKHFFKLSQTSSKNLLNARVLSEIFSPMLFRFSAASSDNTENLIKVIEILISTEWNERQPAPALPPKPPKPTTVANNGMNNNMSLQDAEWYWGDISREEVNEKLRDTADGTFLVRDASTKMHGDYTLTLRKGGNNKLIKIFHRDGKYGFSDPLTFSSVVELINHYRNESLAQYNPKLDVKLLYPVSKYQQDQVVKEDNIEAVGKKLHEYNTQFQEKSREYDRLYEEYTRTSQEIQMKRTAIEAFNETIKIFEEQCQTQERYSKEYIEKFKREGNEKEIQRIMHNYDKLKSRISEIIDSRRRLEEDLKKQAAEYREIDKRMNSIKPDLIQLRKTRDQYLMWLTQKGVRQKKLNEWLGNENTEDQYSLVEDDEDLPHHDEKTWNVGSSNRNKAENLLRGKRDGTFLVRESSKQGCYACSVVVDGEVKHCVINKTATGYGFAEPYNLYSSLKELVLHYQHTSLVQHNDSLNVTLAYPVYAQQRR
Sequence of SRC N1 (P12931 1-542 isoform P12931-2): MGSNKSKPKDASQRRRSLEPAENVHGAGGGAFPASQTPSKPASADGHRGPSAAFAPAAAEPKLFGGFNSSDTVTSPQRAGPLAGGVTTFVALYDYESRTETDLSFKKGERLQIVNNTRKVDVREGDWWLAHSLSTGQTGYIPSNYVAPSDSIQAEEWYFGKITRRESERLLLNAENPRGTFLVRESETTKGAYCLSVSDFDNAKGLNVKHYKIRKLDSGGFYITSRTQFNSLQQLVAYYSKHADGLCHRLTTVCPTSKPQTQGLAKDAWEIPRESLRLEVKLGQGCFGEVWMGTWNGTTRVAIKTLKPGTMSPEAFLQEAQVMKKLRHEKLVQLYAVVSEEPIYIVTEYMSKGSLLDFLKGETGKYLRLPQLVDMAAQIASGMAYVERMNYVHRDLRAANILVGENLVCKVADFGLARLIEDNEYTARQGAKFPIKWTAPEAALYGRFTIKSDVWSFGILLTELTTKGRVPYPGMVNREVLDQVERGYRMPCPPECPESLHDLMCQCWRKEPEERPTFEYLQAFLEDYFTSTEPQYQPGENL
Sequence of BMPR1A (ALK3) (P36894 24-532): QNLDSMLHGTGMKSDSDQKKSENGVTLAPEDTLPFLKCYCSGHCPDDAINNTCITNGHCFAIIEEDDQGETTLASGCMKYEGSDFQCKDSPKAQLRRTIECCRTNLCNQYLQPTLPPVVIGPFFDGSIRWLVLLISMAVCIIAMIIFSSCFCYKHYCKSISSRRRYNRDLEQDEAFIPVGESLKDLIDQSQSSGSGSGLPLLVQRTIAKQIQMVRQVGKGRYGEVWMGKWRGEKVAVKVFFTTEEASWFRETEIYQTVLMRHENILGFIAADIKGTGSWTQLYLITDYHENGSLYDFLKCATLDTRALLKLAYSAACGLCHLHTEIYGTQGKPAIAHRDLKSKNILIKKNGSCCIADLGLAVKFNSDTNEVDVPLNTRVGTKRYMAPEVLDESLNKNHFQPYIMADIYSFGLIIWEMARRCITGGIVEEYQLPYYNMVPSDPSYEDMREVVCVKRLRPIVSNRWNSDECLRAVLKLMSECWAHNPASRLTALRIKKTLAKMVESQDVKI
Sequence of STK38L (NDR2) (Q9Y2H1 whole entry): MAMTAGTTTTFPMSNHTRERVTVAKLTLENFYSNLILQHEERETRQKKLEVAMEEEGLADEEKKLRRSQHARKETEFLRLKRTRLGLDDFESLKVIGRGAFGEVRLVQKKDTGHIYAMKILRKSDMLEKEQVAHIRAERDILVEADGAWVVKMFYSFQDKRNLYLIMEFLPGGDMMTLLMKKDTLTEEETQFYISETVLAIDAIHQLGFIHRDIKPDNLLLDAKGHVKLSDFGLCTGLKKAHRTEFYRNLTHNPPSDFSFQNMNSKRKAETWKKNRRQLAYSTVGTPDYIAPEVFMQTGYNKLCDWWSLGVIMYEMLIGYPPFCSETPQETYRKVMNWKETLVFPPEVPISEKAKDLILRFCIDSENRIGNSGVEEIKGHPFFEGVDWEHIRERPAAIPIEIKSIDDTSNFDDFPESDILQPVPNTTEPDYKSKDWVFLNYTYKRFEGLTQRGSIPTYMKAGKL

Effect on migration of THP-1 cells towards MCP-1 (MCP-1; 10 μg/ml): no apparent effect | Inhibition of migration of THP-1 cells towards MCP-1 (MCP-1; 50 μg/ml): strong inhibition | % Inhibition (BMPR1A (ALK3)): 58% | % Inhibition (DAPK1): 43% | % Inhibition (PIK3CD): 77% | % Inhibition (PAK7 (KIAA1264)): 40% | % Inhibition (STK38L (NDR2)): 45% | % Inhibition (PIK3CA): 64% | % Inhibition (CDK8/cyclin C): 64% | % Inhibition (ICK): 41% | % Inhibition (SRC N1): 41%
Structure (SMILES): CCCCCc1cc2cc(O)cc(Oc3c(O)cc(O)cc3CCCCC)c2c(=O)o1 [BKT300]
Cell death of H345 cells [1]: over 90% | Cell death of Bjab cells [2]: about 30% | Cell death of H460 cells [3]: about 80% | Concentration at which cell death of RPMI cells is induced (as low as; lowest tested) [4]: ≤ 2 µg/mL | Cell death of Raji cells ([5]; 4.25 μg/ml): slight cell death | Cell death of Raji cells ([5]; 8.5 μg/ml): about 30% | Concentration at which cell death of Jurkat cells is induced (as low as; lowest tested) [6]: ≤ 2 µg/mL | IC50 ([6]; Homo sapiens, Jurkat, read-out: IC50 for induced death of Jurkat cells): 3.5 µg/mL (≈ 8.21 µM) | Number and percentage of AML cells in the bone marrow (MV4-11 (FLT3-ITD) cells): dramatically reduced | Concentration at which cell death of MV4-11 cells is induced (as low as; lowest tested) ([7]; BKT300 at 78% purity, 24 hours): ≤ 2 µg/mL | Degree of cell death of MV4-11 cells, 98% purity compared with 78% purity ([7]; BKT300 at 98% purity, 4.25 μg/ml): considerably greater degree of cell death | Inducing cell death of MV4-11 cells, 98% purity compared with 78% purity ([7]; BKT300 at 98% purity, 2.125, 4.25, 8.5 μg/ml): significantly more effective | Inhibition of migration of Jurkat cells towards SDF-1 (SDF-1; BKT300 at 78% purity): significantly inhibited | Inhibition of migration of Jurkat cells towards SDF-1 (SDF-1; BKT300 at 98% purity): significantly inhibited
